# Test results reported in publication PMC9250534, “Synthesis and direct assay of large macrocycle diversities by combinatorial late-stage modification at picomole scale” (Nature Communications, 2022).
# Numbered stars: 1 amine (or outer) side, 2 acyl side, 3 side chain; on linkers, the order of the positions; unused ones are H or OH. Bridge positions count the residues as written; N and C are the ends. Square brackets hold non-standard residues; d marks the D form. Side chains are listed from the residue outwards. Peptide text beside a SMILES is read from it. * marks the point of attachment. ξ: configuration not given here. Propanoyl(3-(4-Cl-Ph)) = O=C(CCc1ccc(Cl)cc1)*; Pyrazinoyl(5-oxo-4H) = O=C(c1c[nH]c(=O)cn1)*; ξNaproxenoyl = COc1ccc2cc(C(C)C(=O)*)ccc2c1; 1,2,3Thiadiazole5CO(4-Me) = Cc1nnsc1C(=O)*; Tetrahydropyran4carbonyl = O=C(C1CCOCC1)*; Phenylacetyl(4-Cl) = O=C(Cc1ccc(Cl)cc1)*; Isoorotoyl = O=C(c1c[nH]c(=O)[nH]c1=O)*; Nicotinoyl(6-OMe) = COc1ccc(C(=O)*)cn1; X11 = O=C(c1cccc(S(F)(F)(F)(F)F)c1)*; Benzoyl(4-Cl) = O=C(c1ccc(Cl)cc1)*; Morpholinoacetyl = O=C(CN1CCOCC1)*; Benzoyl(3-OH) = O=C(c1cccc(O)c1)*; Pyrazinecarbonyl = O=C(c1cnccn1)*; Phenoxyacetyl = O=C(COc1ccccc1)*; Pentanoyl(4-Me) = CC(C)CCC(=O)*; X5 = O=C(c1cc2cc(Cl)ccc2[nH]1)*; X14 = O=C(C1(c2ccccc2)CCCCC1)*; Cysteamide = C(CS[*:3])N[*:1]; X3 = O=C(Cc1c[nH]c2ccccc12)*; Me3Gly = C[N+](C)(C)CC(=O)*; X12 = Cc1nc2ccccn2c1C(=O)*; Isovaleryl = CC(C)CC(=O)*; MeOSuc = COC(=O)CCC(=O)*; Orn = NCCC[C@H](N)C(=O)O; X1 = O=C(/C=C/c1ccccc1)*; X16 = Cc1cc(C(=O)*)ccc1O; X17 = O=C(c1ccc(Br)o1)*; Dap = NC[CH](N)C(=O)O; Bz = O=C(c1ccccc1)*; Mpa = O=C(O)CCS
# Target: T1, thrombin (Homo sapiens, UniProt P00734)
# T1 construct: consists of two polypeptide chains of 36 (light chain) and 259 amino acid
# Assay: Thrombin inhibition screen of crude macrocycle reactions (residual thrombin activity, fluorogenic substrate Z-Gly-Gly-Arg-AMC)
# Format: biochemical
# Details: 10 µM macrocycle concentration; crude reactions, Library 1a-l; scaffold AA1-AA2-AA3 combined with 1-16 or '-'
# Protocol: As a proof-of-concept, we screened the macrocycle library for inhibitors against thrombin, which is the central blood coagulation protease and an important therapeutic target. We conducted the screen for thrombin-inhibiting macrocycles in 384-well reaction plates. Briefly, each well contained a unique macrocycle (10 μM), 5 μL of thrombin (2 nM final conc.), and subsequently, 5 µL of a fluorogenic substrate to measure the residual thrombin activity and the extent of protease inhibition.
# The assays were performed in 384-well plates using Tris buffer at pH 7.4 (100 mM Tris-Cl, 150 mM NaCl, 10 mM MgCl2, 1 mM CaCl2, 0.1% w/v BSA, 0.01% v/v Triton-X100, and 0.6% v/v DMSO) using thrombin at a final concentration of 2 nM and the fluorogenic substrate Z-Gly-Gly-Arg-AMC at a final concentration of 50 μM. Thrombin (5 μL, 6 nM) in the Tris-Cl buffer described above was added to each peptide using a BioTek MultiFlo microplate dispenser, and incubated for 10 min at room temperature. […] Data was collected and exported using the Tecan Infinite M200 Pro instrument software. […] For the negative controls (20 wells containing DMSO but no macrocycle), an average slope was calculated. The percent of thrombin inhibition was calculated by dividing the slopes and multiplying the results by 100.
row,SMILES,percent residual thrombin activity
1,NC(=O)CC[C@@H]1NC(=O)[C@H](CCCCNC(=O)Cc2c[nH]c3ccccc23)NC(=O)[C@@H]2CCCN2C(=O)CCSSCCNC1=O [B1-D1-Q/12] ([Mpa]PK(X3)Q-Cysteamide; disulfide 1-C),106.242%
2,"Cc1nnsc1C(=O)NCCCC[C@@H]1NC(=O)[C@@H]2CCCN2C(=O)CCSSCCNC(=O)[C@H](CCC(N)=O)NC1=O [B1-D1-Q/15] ([Mpa]PK(1,2,3Thiadiazole5CO(4-Me))Q-Cysteamide; disulfide 1-C)",113.502%
3,CC(C)[C@H]1NC(=O)[C@H](CCCCNC(=O)c2ccccc2)NC(=O)[C@@H]2CCCN2C(=O)CCSSCCNC1=O [B1-D1-v/1] ([Mpa]PK(Bz)[dV]-Cysteamide; disulfide 1-C),107.218%
4,CC(C)C1NC(=O)C(CCCCNC(=O)c2cnccn2)NC(=O)C2CCCN2C(=O)CCSSCCNC1=O (centres unmarked) [B1-D1-v/2] ([Mpa]PK(Pyrazinecarbonyl)V-Cysteamide; disulfide 1-C; configuration not given here),115.134%
5,CC(C)CC(=O)NCCCC[C@@H]1NC(=O)[C@@H]2CCCN2C(=O)CCSSCCNC(=O)[C@@H](C(C)C)NC1=O [B1-D1-v/8] ([Mpa]PK(Isovaleryl)[dV]-Cysteamide; disulfide 1-C),112.751%
6,CC(C)[C@H]1NC(=O)[C@H](CCCCNC(=O)c2c[nH]c(=O)cn2)NC(=O)[C@@H]2CCCN2C(=O)CCSSCCNC1=O [B1-D1-v/9] ([Mpa]PK(Pyrazinoyl(5-oxo-4H))[dV]-Cysteamide; disulfide 1-C),111.698%
7,COc1ccc(C(=O)NCCCC[C@@H]2NC(=O)[C@@H]3CCCN3C(=O)CCSSCCNC(=O)[C@@H](C(C)C)NC2=O)cn1 [B1-D1-v/10] ([Mpa]PK(Nicotinoyl(6-OMe))[dV]-Cysteamide; disulfide 1-C),107.398%
8,CC(C)[C@H]1NC(=O)[C@H](CCCCNC(=O)COc2ccccc2)NC(=O)[C@@H]2CCCN2C(=O)CCSSCCNC1=O [B1-D1-v/13] ([Mpa]PK(Phenoxyacetyl)[dV]-Cysteamide; disulfide 1-C),123.844%
9,CC(C)[C@H]1NC(=O)[C@H](CCCCN)NC(=O)[C@@H]2CCCN2C(=O)CCSSCCNC1=O [B1-D1-v/-] ([Mpa]PK[dV]-Cysteamide; disulfide 1-C),114.269%
10,O=C(NCCCC[C@@H]1NC(=O)[C@@H]2CCCN2C(=O)CCSSCCNC(=O)[C@@H](Cc2ccc(O)cc2)NC1=O)c1ccccc1 [B1-D1-y/1] ([Mpa]PK(Bz)[dY]-Cysteamide; disulfide 1-C),105.697%
11,O=C(NCCCC[C@@H]1NC(=O)[C@@H]2CCCN2C(=O)CCSSCCNC(=O)[C@@H](Cc2ccc(O)cc2)NC1=O)c1c[nH]c(=O)cn1 [B1-D1-y/9] ([Mpa]PK(Pyrazinoyl(5-oxo-4H))[dY]-Cysteamide; disulfide 1-C),107.785%
12,COc1ccc(C(=O)NCCCC[C@@H]2NC(=O)[C@@H]3CCCN3C(=O)CCSSCCNC(=O)[C@@H](Cc3ccc(O)cc3)NC2=O)cn1 [B1-D1-y/10] ([Mpa]PK(Nicotinoyl(6-OMe))[dY]-Cysteamide; disulfide 1-C),109.958%
13,NC(=O)CC[C@@H]1NC(=O)[C@@H]2CCCN2C(=O)CCSSCCNC(=O)[C@H](CCCNC(=O)c2c[nH]c(=O)[nH]c2=O)NC1=O [B1-Q-D2/11] ([Mpa]PQ[Orn](Isoorotoyl)-Cysteamide; disulfide 1-C),110.064%

# Target: MDM2 (Homo sapiens, UniProt Q00987)
# Sequence (Q00987 whole entry): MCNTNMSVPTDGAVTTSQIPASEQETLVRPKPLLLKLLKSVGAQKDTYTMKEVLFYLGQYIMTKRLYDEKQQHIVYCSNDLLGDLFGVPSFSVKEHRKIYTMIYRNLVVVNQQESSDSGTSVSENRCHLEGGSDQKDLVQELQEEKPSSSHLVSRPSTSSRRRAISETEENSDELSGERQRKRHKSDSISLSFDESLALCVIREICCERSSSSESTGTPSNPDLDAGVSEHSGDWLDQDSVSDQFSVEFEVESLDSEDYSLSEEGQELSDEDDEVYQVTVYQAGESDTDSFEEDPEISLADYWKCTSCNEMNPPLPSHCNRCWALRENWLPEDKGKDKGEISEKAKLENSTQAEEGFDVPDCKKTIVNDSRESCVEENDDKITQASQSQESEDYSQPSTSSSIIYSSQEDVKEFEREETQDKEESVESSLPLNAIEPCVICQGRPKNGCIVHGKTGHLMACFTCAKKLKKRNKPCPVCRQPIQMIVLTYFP
# Assay: MDM2 binding screen: displacement of fluorescent p53 peptide probe FP53 (fluorescence polarization)
# Details: 10 µM macrocycle concentration; crude acylated macrocycle (scaffold Mpa-AA1-AA2-AA3 x carboxylic acid); p53-based fluorescent peptide, human MDM2
# Method in brief: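 Macrocycle reaction products at a final 10 µM were tested for displacement of a p53-based fluorescent peptide from human MDM2. Fluorescence anisotropy (ex 485/em 535 nm) was read once per macrocycle at 25 °C.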
row,SMILES,fraction fluorescent probe displaced
1,O=C(NC[C@@H]1NC(=O)[C@@H]2CCCN2C(=O)CCSSCCNC(=O)[C@H](Cc2c[nH]c3ccccc23)NC1=O)c1cccc(S(F)(F)(F)(F)F)c1 [X-B1-D3-W + A19] ([Mpa]P[Dap](X11)W-Cysteamide; disulfide 1-C),0.1429
2,O=C(NC[C@@H]1NC(=O)[C@@H]2CCCN2C(=O)CCSSCCNC(=O)[C@H](Cc2c[nH]c3ccccc23)NC1=O)c1ccc(Br)o1 [X-B1-D3-W + A21] ([Mpa]P[Dap](X17)W-Cysteamide; disulfide 1-C),0.2551
3,O=C(NC[C@@H]1NC(=O)[C@@H]2CCCN2C(=O)CCSSCCNC(=O)[C@H](Cc2c[nH]c3ccccc23)NC1=O)c1ccc(Cl)cc1 [X-B1-D3-W + A25] ([Mpa]P[Dap](Benzoyl(4-Cl))W-Cysteamide; disulfide 1-C),0.2195
4,O=C(NC[C@@H]1NC(=O)[C@@H]2CCCN2C(=O)CCSSCCNC(=O)[C@H](Cc2c[nH]c3ccccc23)NC1=O)c1cccc(O)c1 [X-B1-D3-W + A27] ([Mpa]P[Dap](Benzoyl(3-OH))W-Cysteamide; disulfide 1-C),0.1229
5,Cc1cc(C(=O)NC[C@@H]2NC(=O)[C@@H]3CCCN3C(=O)CCSSCCNC(=O)[C@H](Cc3c[nH]c4ccccc34)NC2=O)ccc1O [X-B1-D3-W + A30] ([Mpa]P[Dap](X16)W-Cysteamide; disulfide 1-C),0.08563
6,O=C(NC[C@@H]1NC(=O)[C@@H]2CCCN2C(=O)CCSSCCNC(=O)[C@H](Cc2c[nH]c3ccccc23)NC1=O)c1cc2cc(Cl)ccc2[nH]1 [X-B1-D3-W + A39] ([Mpa]P[Dap](X5)W-Cysteamide; disulfide 1-C),0.06212
7,O=C(CCc1ccc(Cl)cc1)NC[C@@H]1NC(=O)[C@@H]2CCCN2C(=O)CCSSCCNC(=O)[C@H](Cc2c[nH]c3ccccc23)NC1=O [X-B1-D3-W + A42] ([Mpa]P[Dap](Propanoyl(3-(4-Cl-Ph)))W-Cysteamide; disulfide 1-C),0.05096
8,O=C(NC[C@@H]1NC(=O)[C@@H]2CCCN2C(=O)CCSSCCNC(=O)[C@H](Cc2c[nH]c3ccccc23)NC1=O)C1CCOCC1 [X-B1-D3-W + A44] ([Mpa]P[Dap](Tetrahydropyran4carbonyl)W-Cysteamide; disulfide 1-C),0.01122
9,O=C(Cc1ccc(Cl)cc1)NC[C@@H]1NC(=O)[C@@H]2CCCN2C(=O)CCSSCCNC(=O)[C@H](Cc2c[nH]c3ccccc23)NC1=O [X-B1-D3-W + A45] ([Mpa]P[Dap](Phenylacetyl(4-Cl))W-Cysteamide; disulfide 1-C),0.08387
10,Cc1nc2ccccn2c1C(=O)NC[C@@H]1NC(=O)[C@@H]2CCCN2C(=O)CCSSCCNC(=O)[C@H](Cc2c[nH]c3ccccc23)NC1=O [X-B1-D3-W + A61] ([Mpa]P[Dap](X12)W-Cysteamide; disulfide 1-C),0.006636
11,O=C(CN1CCOCC1)NC[C@@H]1NC(=O)[C@@H]2CCCN2C(=O)CCSSCCNC(=O)[C@H](Cc2c[nH]c3ccccc23)NC1=O [X-B1-D3-W + A63] ([Mpa]P[Dap](Morpholinoacetyl)W-Cysteamide; disulfide 1-C),0.03922
12,CC(C)CCC(=O)NC[C@@H]1NC(=O)[C@@H]2CCCN2C(=O)CCSSCCNC(=O)[C@H](Cc2c[nH]c3ccccc23)NC1=O [X-B1-D3-W + A68] ([Mpa]P[Dap](Pentanoyl(4-Me))W-Cysteamide; disulfide 1-C),-0.02228
13,CC(=O)NCC(=O)NC[C@@H]1NC(=O)[C@@H]2CCCN2C(=O)CCSSCCNC(=O)[C@H](Cc2c[nH]c3ccccc23)NC1=O [X-B1-D3-W + A83] ([Mpa]P[Dap]([Gly-Ac])W-Cysteamide; disulfide 1-C),0.1654
14,O=C(/C=C/c1ccccc1)NC[C@@H]1NC(=O)[C@@H]2CCCN2C(=O)CCSSCCNC(=O)[C@H](Cc2c[nH]c3ccccc23)NC1=O [X-B1-D3-W + A91] ([Mpa]P[Dap](X1)W-Cysteamide; disulfide 1-C),0.1099
15,C[N+](C)(C)CC(=O)NC[C@@H]1NC(=O)[C@@H]2CCCN2C(=O)CCSSCCNC(=O)[C@H](Cc2c[nH]c3ccccc23)NC1=O [X-B1-D3-W + A92] ([Mpa]P[Dap](Me3Gly)W-Cysteamide; disulfide 1-C),-0.1286
16,COC(=O)CCC(=O)NC[C@@H]1NC(=O)[C@@H]2CCCN2C(=O)CCSSCCNC(=O)[C@H](Cc2c[nH]c3ccccc23)NC1=O [X-B1-D3-W + A93] ([Mpa]P[Dap](MeOSuc)W-Cysteamide; disulfide 1-C),0.1339
17,COc1ccc2cc(C(C)C(=O)NCC3NC(=O)C4CCCN4C(=O)CCSSCCNC(=O)C(Cc4c[nH]c5ccccc45)NC3=O)ccc2c1 (centres unmarked) [X-B1-D3-W + A97] ([Mpa]P[Dap](ξNaproxenoyl)W-Cysteamide; disulfide 1-C; configuration not given here),0.005277
18,O=C1NCCSSCCC(=O)N2CCC[C@H]2C(=O)N[C@@H](CNC(=O)C2(c3ccccc3)CCCCC2)C(=O)N[C@H]1Cc1c[nH]c2ccccc12 [X-B1-D3-W + A98] ([Mpa]P[Dap](X14)W-Cysteamide; disulfide 1-C),0.6683
19,NC[C@@H]1NC(=O)[C@@H]2CCCN2C(=O)CCSSCCNC(=O)[C@H](Cc2c[nH]c3ccccc23)NC1=O [X-B1-D3-W + No Acid] ([Mpa]P[Dap]W-Cysteamide; disulfide 1-C),0.1075
